Drawing on ChEMBL document CHEMBL1811896, “Isoflavone dimers and other bioactive constituents from the figs of Ficus mucuso” (J Nat Prod, 2011), this text covers inhibition, IC50 and Ratio IC50 for 14 molecules.

Activity calls are given as the source filed them. No cut-off for these calls is given here.

Test [1] relates to Escherichia coli. Description: Inhibition of Escherichia coli beta-glucuronidase assessed as inhibition of p-nitrophenyl-beta-D-glucuronide hydrolysis at 0.08 mM preincubated for 30 mins measured 30 mins after substrate addition by spectrophotometry.
The target in test [2] is T1, Enoyl-acyl-carrier protein reductase (Plasmodium falciparum) (UniProt Q965D5).
T1 sequence (whole entry): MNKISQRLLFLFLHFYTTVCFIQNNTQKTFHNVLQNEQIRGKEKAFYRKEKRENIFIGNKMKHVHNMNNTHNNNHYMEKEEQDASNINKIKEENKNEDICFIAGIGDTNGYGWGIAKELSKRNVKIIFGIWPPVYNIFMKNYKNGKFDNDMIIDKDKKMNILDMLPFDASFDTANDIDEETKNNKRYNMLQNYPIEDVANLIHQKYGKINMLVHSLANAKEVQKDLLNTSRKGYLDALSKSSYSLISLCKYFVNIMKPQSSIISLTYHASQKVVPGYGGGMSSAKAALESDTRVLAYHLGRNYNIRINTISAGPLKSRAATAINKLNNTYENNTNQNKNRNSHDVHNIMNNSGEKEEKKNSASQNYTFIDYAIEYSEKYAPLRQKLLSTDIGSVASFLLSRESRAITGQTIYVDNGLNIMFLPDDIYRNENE
Put plainly: Inhibition of Plasmodium falciparum Enoyl-ACP reductase using crotonyl-CoA as substrate at 0.25 mM peincubated for 5 mins measured after 10 mins of substrate addition by UV-vis spectrophotometry.

Test [3] has as its target T1, Enoyl-acyl-carrier protein reductase (Plasmodium falciparum). Put plainly: (§1) Inhibition of Plasmodium falciparum Enoyl-ACP reductase using crotonyl-CoA as substrate peincubated for 5 mins measured after 10 mins of substrate addition by UV-vis spectrophotometry.
In test [4] the test system is Escherichia coli. Put plainly: Inhibition of Escherichia coli beta-glucuronidase assessed as inhibition of p-nitrophenyl-beta-D-glucuronide hydrolysis at 0.05 mM preincubated for 30 mins measured 30 mins after substrate addition by spectrophotometry.
Test [5] concerns Escherichia coli. Description: Inhibition of Escherichia coli beta-glucuronidase assessed as inhibition of p-nitrophenyl-beta-D-glucuronide hydrolysis at 0.20 mM preincubated for 30 mins measured 30 mins after substrate addition by spectrophotometry.
Test [6] in a line: Inhibition of Escherichia coli beta-glucuronidase assessed as inhibition of p-nitrophenyl-beta-D-glucuronide hydrolysis preincubated for 30 mins measured 30 mins after substrate addition by spectrophotometry.
For test [7], the target named is T1, Enoyl-acyl-carrier protein reductase (Plasmodium falciparum). Particulars: 0.1 mM.
Description: Inhibition of Plasmodium falciparum Enoyl-ACP reductase using crotonyl-CoA as substrate at 0.1 mM peincubated for 5 mins measured after 10 mins of substrate addition by UV-vis spectrophotometry
Test [8] deals with T2, Enoyl-acyl-carrier protein reductase (Plasmodium falciparum, UniProt Q965D5).
T2 sequence (Q965D5 whole entry): T1 sequence (whole entry)
The test is described as §1.

The test system of test [9] is Escherichia coli. Description: Ratio of D-saccharic acid-1,4-lactone IC50 to compound IC50 for Escherichia coli beta-glucuronidase.
Test [10] deals with Escherichia coli. Description: Inhibition of Escherichia coli beta-glucuronidase assessed as inhibition of p-nitrophenyl-beta-D-glucuronide hydrolysis at 0.10 mM preincubated for 30 mins measured 30 mins after substrate addition by spectrophotometry.
Test [11] has as its target T1, Enoyl-acyl-carrier protein reductase (Plasmodium falciparum). Put plainly: Inhibition of Plasmodium falciparum Enoyl-ACP reductase using crotonyl-CoA as substrate at 0.025 mM peincubated for 5 mins measured after 10 mins of substrate addition by UV-vis spectrophotometry.
The target is the same in test [12]. Particulars: 0.05 mM.
Description: Inhibition of Plasmodium falciparum Enoyl-ACP reductase using crotonyl-CoA as substrate at 0.05 mM peincubated for 5 mins measured after 10 mins of substrate addition by UV-vis spectrophotometry
For test [13] the target is unchanged. Description: Inhibition of Plasmodium falciparum Enoyl-ACP reductase using crotonyl-CoA as substrate at 0.15 mM peincubated for 5 mins measured after 10 mins of substrate addition by UV-vis spectrophotometry.

On to `CC1(C)C=Cc2c(cc3occ(-c4ccc(O)cc4)c(=O)c3c2O)O1`, for which the inhibition came out at 17.6% with Escherichia coli [1] and 12.6% in [2].

Regarding `CCCCC/C=C/CCCCCCC[C@@H](O)[C@@H](O)[C@H](CO)NC(=O)[C@H](O)CCCCCCCCCCCCCCCCCCCCCC`, in the test on Escherichia coli [1], the inhibition amounted to 1.7%. For the same molecule, the inhibition entry in [2] and in [3] was “inactive” in each case.

With `C[C@@H]1CC[C@]2(C(=O)O)CC[C@]3(C)C(=CC[C@@H]4[C@@]5(C)C[C@@H](O)[C@H](OC(=O)/C=C/c6ccc(O)cc6)C(C)(C)[C@@H]5CC[C@]43C)[C@@H]2[C@]1(C)O`, the inhibition with Escherichia coli [1] is 15.9%; in [2], 3.9%.

Turning to `O=C(O)[C@@H](O)[C@H]1OC(=O)[C@H](O)[C@H]1O`, the inhibition in the test with Escherichia coli [4] is 99.5%.

Regarding `O=C(O)c1ccc(O)c(O)c1`, in the test on Escherichia coli [5], the inhibition was found to be 23.5%.

Consider `O=c1cc(-c2ccc(O)cc2)oc2cc(O)cc(O)c12`, for which the inhibition with Escherichia coli [5] was 15.7%.

Take `COc1c(-c2ccc(O)c(O)c2)oc2cc(O)cc(O)c2c1=O` [3-O-METHYLQUERCETIN]: the IC50 in test [6] turned out to be 44.6 µM; in test [8], 35.2 µM. Besides, the inhibition stood at 88.2% in test [7] and 85.2% in the test with Escherichia coli [5].

Regarding `O=c1c(O)c(-c2ccc(O)cc2)oc2cc(O)cc(O)c12` [KAEMPFEROL], the concentration for half-maximal inhibition (IC50) in test [6] stood at 27.6 µM. Besides, the values for the inhibition (in test [2]; with Escherichia coli [5]) were 6.5% and 87.5%, respectively.

In the case of `CC1=C[C@H](c2cc(-c3coc4cc(O)cc(O)c4c3=O)ccc2O)[C@](C)(/C=C/c2cc(-c3coc4cc(O)cc(O)c4c3=O)ccc2O)CC1` [MUCUSISOFLAVONE A], the Ratio IC50 in the test with Escherichia coli [9] was determined as 71. In addition, the 50% inhibitory concentration (IC50) in test [6] stood at 0.68 µM. Also, the inhibition entry in test [2] and in test [3] was “inactive” throughout. Moreover, in the test with Escherichia coli [5], the inhibition amounted to 98.7%.

As to `CC(C)=C[C@@H]1C[C@](C)(/C=C/c2cc(-c3coc4cc(O)cc(O)c4c3=O)ccc2O)Oc2ccc(-c3coc4cc(O)cc(O)c4c3=O)cc21` [MUCUSISOFLAVONE B], the half-maximal inhibitory concentration (IC50) in test [6] was determined as 14 µM. Moreover, the inhibition result in [2] and in test [3] was “inactive” each time. In the test with Escherichia coli [10], the inhibition is 70.1%.

Take `CC(C)=CCc1cc(-c2coc3c(C(C=C(C)C)c4cc(-c5coc6cc(O)cc(O)c6c5=O)ccc4O)c(O)cc(O)c3c2=O)ccc1O` (centres undefined) [MUCUSISOFLAVONE C]: the inhibition turned out to be 89.1% in test [11] and 94% in the test with Escherichia coli [10]. Besides, the IC50 in test [6] came to 3.08 µM; in test [8] it was 7.69 µM.

`Oc1cc(Cl)ccc1Oc1ccc(Cl)cc1Cl` [TRICLOSAN]: in [12], the inhibition was 99.5%. Besides, the IC50 in test [8] stood at 0.2 µM.

For `CC(C)=CCc1c(O)cc2occ(-c3ccc(O)cc3)c(=O)c2c1O` [WIGHTEONE], the inhibition is 42.6% in test [13] and 97.3% in the test with Escherichia coli [5]. Also, the IC50 in test [6] was 4.03 µM.

Take `COc1ccc(C(=O)O)cc1` [p-ANISIC ACID]: the IC50 in test [6] amounted to 124 µM. Besides, the inhibition entry in test [2] and in test [3] was “inactive” throughout. In the test on Escherichia coli [5], the inhibition was 66.2%.
